Structures can show the parent of a compound that is named as a salt. Where two headings read alike, the source gives them in different places. Marks after values point to notes of the source that are not given here.
How the values were obtained:
avoidance responding [1] = test: conditioned avoidance (discrete trial) test; assay type: in vivo, Male CD rats; conditions: Rattus norvegicus, po; footnote 1 = AB50 value; read-out: Active at mg/kg (AB50 value)
Protocol: The antipsychotic activity of the compounds of the invention is assessed via the conditioned avoidance (discrete trial) test. This test has excellent clinical correlation for antipsychotic activity.
The test is carried out as follows: Male CD rats (Charles River) maintained at approximately 400-450 gm body weight are used. Rats trained previously are placed in plexiglass experimental chambers equipped with a response lever, house light, and sonalert. A steel grid floor is wired for presentation of electric shock. Each trial consists of a fifteen-second warning tone (conditioned stimulus), continuing for an additional fifteen seconds accompanied by electric shock, (unconditioned stimulus). The rat can terminate a trial at any point by depression of the response lever. As response during the initial fifteen-second warning tone ends the trial before shock delivery and is considered avoidance response, while a response occurring during shock delivery is an escape response. Trials are presented on a variable interval schedule of two minutes. The session consists of sixty trials. Animals are run two to three times weekly with control sessions always preceding a drug run, and with at least one day intervening, compounds are administered i.p. or p.o. at appropriate pre-treatment times to a minimum of five to six rats at each dose level over a range of doses.
(§1) Response counts are summed over all subjects at a given dose. […] This number is expressed as a percentage of the total trials. Control performance is arbitrarily assigned a value of 100% for avoidance and the dose calculated to produce a 50% block in avoidance responding (AB₅₀) is obtained from a dose-effect regression line fitted by the method of least squares. Potential antipsychotic compounds suppress avoidance responding and increase escape responding.

[2] = biological target: T1, 5-HT-1A serotonin receptor (Rattus norvegicus, UniProt P19327); test: ex vivo inhibition of 5-HT-1A serotonin receptor binding (3H-8-OH-DPAT, hippocampal membranes); set-up: species or system rats
T1 construct: Hippocampal tissue is dissected and homogenized on ice; from tissue; host or cells: rat hippocampal membrane homogenate
T1 sequence (P19327 1-422): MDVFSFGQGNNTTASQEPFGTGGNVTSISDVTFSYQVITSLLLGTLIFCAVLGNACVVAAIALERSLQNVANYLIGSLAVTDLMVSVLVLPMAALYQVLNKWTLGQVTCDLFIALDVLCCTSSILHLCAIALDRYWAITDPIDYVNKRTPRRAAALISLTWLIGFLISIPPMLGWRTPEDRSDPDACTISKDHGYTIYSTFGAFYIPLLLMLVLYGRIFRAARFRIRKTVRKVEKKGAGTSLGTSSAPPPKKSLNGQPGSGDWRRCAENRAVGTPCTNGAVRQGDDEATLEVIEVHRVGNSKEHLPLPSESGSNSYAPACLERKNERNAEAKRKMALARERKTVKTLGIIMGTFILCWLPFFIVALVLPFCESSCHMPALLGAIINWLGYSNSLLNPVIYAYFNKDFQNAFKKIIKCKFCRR
Protocol: The assay is carried out as follows: Several groups of rats (4 - 6 rats/group) are injected with test compound or the appropriate vehicle. Thirty minutes later, unless otherwise noted, rats are decapitated and their brains removed. Various brain regions are dissected and rapidly frozen and maintained at -70°C until used.
Hippocampal tissue is dissected and homogenized on ice in 40 vols of buffer (50 mM Tris HCl, pH = 7.7) using a Polytron homogenizer at setting 5 for 3 x 15 sec bursts. The homogenate is then centrifuged at 20,000 rpm (RC5-B; 50,000 g) and the supernatant discarded. The pellet is resuspended in 40 vols of the same buffer and incubated at 37°C for 10 minutes to aid in the removal of endogenous serotonin. The homogenate is then centrifuged (as above) and the supernatant discarded. The pellet is then resuspended in 100 vols of buffer B (50 mM Tris HCl, pH = 7.7 containing 0.1% ascorbate, 10 µM pargyline and 4 mM CaCl₂) and sonicated. An aliquot is taken for protein determination by the Lowry method and the remainder stored frozen at -70°C until used.
The homogenate (50 µl; 0.4-0.6 mg protein/sample) is incubated with 100 µl (1.5-1.8 nM) ³H-8-hydroxy-2-(di-n-propylamino)tetraline in a final volume of 2 ml of buffer for 10 minutes at 37°C. At the end of the incubation, 3 ml of cold buffer A are added to each tube, and the contents rapidly filtered through Whatman GF/B glass filters. The filters are then rapidly washed 2 times with 3 ml of the same buffer, placed in scintillation vials, and shaken for 15 minutes with 10 ml of Hydrofluor (National Diagnostics)scintillation cocktail. The vials are then counted in a Packard 460 CD scintillation counter.
Specific binding is calculated for each of the treatment protocols and is defined as total binding less binding in the presence of excess unlabeled serotonin (1 µM). Specific binding obtained in vehicle-treated rats is compared to that obtained in animals receiving a single or various doses of test compound and expressed as percent of control. […] Linear regression analysis then yields a straight line with 95% confidence limits from which an IC₅₀ can be inversely predicted.

[3] = biological target: T2, limbic D-2 dopamine receptor (Rattus norvegicus, UniProt P61169); test: biochemical; assay type: binding, rats; conditions: for Ki: Table 1, 0.3 nM 3H-spiroperidol, rat limbic brain tissue, read-out: Limbic D-2 Binding (KinM); for inhibition at 1 µM: read-out: Limbic D-2 Binding, % inhibition at 1 µM
T2 construct: Limbic brain tissue (nucleus accumbens, septal area, olfactory tubercle) is dissected; from tissue; host or cells: rat limbic brain tissue (nucleus accumbens, septal area, olfactory tubercle) homogenate

avoidance responding [4] = test: conditioned avoidance (shelf-jump response) test; assay type: in vivo, Male CD rats; conditions: i.p., active dose
Protocol: Another test designed to determine the potential antipsychotic activity of the compounds of the invention is the conditioned avoidance (shelf-jump response) test.
This test is carried out as follows: Male CD rats (Charles River) maintained at approximately 400-450 gm body weight are used. Previously trained rats are placed in plexiglass experimental chambers divided into two sections; a main chamber (10 1/2" x 6 3/4" x 11 7/8" high) and an elevated chamber or shelf (5 7/8" x 6 7/8" x 5 3/4"). A moveable wall, controlled by a motor, determines whether the rat has access to the shelf at any time during the experiment. The experimental chamber also contains a house light and sonalert. A steel grid floor in the main chamber is wired for presentation of electric shock. Each trial consists of a fifteen-second warning tone (conditioned stimulus), continuing for an additional fifteen seconds accompanied by electric shock, (unconditioned stimulus). A response (jumping onto the exposed shelf of the upper chamber) occurring during the initial fifteen-second warning tone is considered an avoidance response, while a response occurring during shock delivery is considered an escape response. Trials are presented on a fixed interval schedule of one minute. The session consists of thirty-six trials. Animals are run twice weekly with control sessions always preceding a drug run, and with at least one day intervening. Compounds are administered i.p. or p.o. at appropriate pre-treatment times to a minimum of five rats at each dose level over a range of doses.
The following experimental parameters are recorded by computer: (1) the number of avoidance responses, (2) the number of escape responses, and (3) the number of trials in which no response occurred.
as §1

[5] = Table 4, 3H-8-OH-DPAT, rat hippocampal tissue, read-out: Inhibition Constant (Ki nm)

T2 sequence (P61169 whole entry): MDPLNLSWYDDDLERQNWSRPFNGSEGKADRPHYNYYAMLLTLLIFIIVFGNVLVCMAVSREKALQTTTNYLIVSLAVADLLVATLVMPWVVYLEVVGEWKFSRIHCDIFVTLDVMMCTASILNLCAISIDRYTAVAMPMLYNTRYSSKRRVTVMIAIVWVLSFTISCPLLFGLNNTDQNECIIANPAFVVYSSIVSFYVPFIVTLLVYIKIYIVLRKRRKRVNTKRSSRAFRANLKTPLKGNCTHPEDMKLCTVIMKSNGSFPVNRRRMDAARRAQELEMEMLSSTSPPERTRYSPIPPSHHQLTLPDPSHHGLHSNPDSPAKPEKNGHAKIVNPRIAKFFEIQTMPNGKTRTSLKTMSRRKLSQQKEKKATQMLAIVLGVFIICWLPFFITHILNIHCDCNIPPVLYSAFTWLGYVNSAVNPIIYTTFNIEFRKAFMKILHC

## O=C1C2C3C=CC(C4CC34)C2C(=O)N1CCCCN1CCN(c2cncc(Cl)n2)CC1 (centres unmarked) [Example 1, 2-[4-[4-(6-Chloro-2-pyrazinyl)-1-piperazinyl]butyl]hexahydro-4,6-ethenocycloprop[f]isoindole-1,3(2H,3aH)-dione, dihydrochloride, sesquihydrate]
Avoidance responding [1]
  ED50: 40 mg/kg
[2]; [5]
  Ki: 0.162 µM
[3]
  Ki: 0.69 µM
Avoidance responding [4]
  Active at mg/kg: 40 (i.p.)* mg/kg

## O=C1C2C3C=CC(C4C=CC43)C2C(=O)N1CCCCN1CCN(c2ncccn2)CC1 (centres unmarked) [Example 3, 3a,4,4a,6a,7,7a-Hexahydro-2-[4-[4-(2-pyrimidinyl)-1-piperazinyl]butyl]-4,7-etheno-1H-cyclobut[f]isoindole-1,3(2H)-dione, dihydrochloride, sesquihydrate]
Avoidance responding [1]
  ED50: 13.4 mg/kg
[2]; [5]
  Ki: 0.017 µM
[3]
  Ki: 0.345 µM
Avoidance responding [4]
  Active at mg/kg: 40 (i.p.) mg/kg

## O=C1C2C3CCC(C4CC43)C2C(=O)N1CCCCN1CCN(c2ncccn2)CC1 (centres unmarked) [Example 7, 2-[4-[4-(2-Pyrimidinyl)-1-piperazinyl]butyl]octahydro-4,6-ethanocycloprop[f]isoindole-1,3-(2H, 3aH)-dione, dihydrochloride, dihydrate]
[2]; [5]
  Ki: 0.0139 µM
[3]
  Ki: 0.14 µM
Avoidance responding [4]
  Active at mg/kg: 40 (i.p.) mg/kg

## O=C1C2C3C=CC(CCCC3)C2C(=O)N1CCCCN1CCN(c2cncc(Cl)n2)CC1 (centres unmarked) [Example 8, 2-[4-[4-(6-Chloro-2-pyrazinyl)-1-piperazinyl]butyl]octahydro-4,9-etheno-1H-cycloocta[c]pyrrole-1,3(2H)-dione, dihydrochloride, sesquihydrate]
[2]; [5]
  Ki: 0.122 µM
[3]
  Ki: 0.345 µM
Avoidance responding [4]
  Active at mg/kg: 40 (i.p.) mg/kg

## O=C1C2C3C=CC(C3)C2C(=O)N1CCCCN1CCN(c2cncc(Cl)n2)CC1 (centres unmarked) [Example 13, 3a,4,7,7a,-Tetrahydro-2-[4-[4-(6-chloro-2-pyrazinyl)-1-piperazinyl]butyl]-4,7-methano-1H-isoindole-1,3(2H)-dione hydrochloride hydrate]
Avoidance responding [1]
  ED50: 39.7 mg/kg
[2]
  inhibition at 1 µM: 74%
[3]
  inhibition at 1 µM: 1%
Avoidance responding [4]
  Active at mg/kg: 40 (i.p.) mg/kg

## O=C1C2C3C=CC(C4CCC34)C2C(=O)N1CCCCN1CCN(c2ncccn2)CC1 (centres unmarked) [Example 16, 2-[4-[4-(2-Pyrimidinyl)-1-piperazinyl]butyl]-octahydro-4,7-etheno-1H-cyclobut[f]isoindole-1,3-(2H)-dione, dihydrochloride, hydrate]
Avoidance responding [1]
  ED50: 47.4 mg/kg
[2]
  Ki: 0.0011 µM
[3]
  Ki: 0.085 µM
Avoidance responding [4]
  Active at mg/kg: 40 (i.p.) mg/kg

## O=C1C2C3C=CC(CCC3)C2C(=O)N1CCCCN1CCN(c2ncccn2)CC1 (centres unmarked) [Example 21, 4,5,6,7,8,8a-Hexahydro-2-[4-[4-(2-pyrimidinyl)-1-piperazinyl]butyl]-4,8-ethenocyclohepta[c]pyrrole-1,3(2H,3aH)-dione, dihydrochloride, hemihydrate]
[2]; [5]
  Ki: 0.012 µM
[3]
  inhibition at 1 µM: 53%
Avoidance responding [4]
  Active at mg/kg: 40 (i.p.) mg/kg

## O=C1C2C3C=CC(C4C=CC43)C2C(=O)N1CCCCN1CCN(c2cnccn2)CC1 (centres unmarked) [Example 23, 3a,4,4a,6a,7,7a-Hexahydro-2-[4-[4-(2-pyrazinyl)-1-piperazinyl]butyl]-4,7-etheno-1H-cyclobut[f]isoindole-1,3-(2H)-dione, fumarate(1:1)]
[2]
  inhibition at 1 µM: 46%
[3]
  inhibition at 1 µM: 13%
Avoidance responding [4]
  Active at mg/kg: 40 (i.p.) mg/kg

## O=C1C2C3C=CC(C4CC34)C2C(=O)N1CCCCN1CCN(c2cnccn2)CC1 (centres unmarked) [Example 24, 4,4a,5,5a,6,6a-Hexahydro-2-[4-[4-(2-pyrazinyl)-1-piperazinyl]butyl]-4,6-ethenocycleprop[f]isoindole-1,3-(2H,3aH)-dione, dihydrochloride, hydrate]
Avoidance responding [1]
  ED50: 49.6 mg/kg
[2]
  inhibition at 1 µM: 68%
[3]
  inhibition at 1 µM: 38%
Avoidance responding [4]
  Active at mg/kg: 40 (i.p.) mg/kg

## O=C1C2C3C=CC(C4CCC34)C2C(=O)N1CCCCN1CCN(c2cnccn2)CC1 (centres unmarked) [Example 27, 3a,4,4a,5,6,6a,7,7a-Octahydro-2-[4-[4-(2-pyrazinyl)-1-piperazinyl]butyl]-4,7-etheno-1H-cyclobut[f]isoindole-1,3(2H)-dione, dihydrochloride, hemihydrate]
[2]; [5]
  Ki: 0.041 µM
[3]
  inhibition at 1 µM: 41%
Avoidance responding [4]
  Active at mg/kg: 40 (i.p.) mg/kg

Source: patent EP0220873B1, “Fused bicyclic imides with psychotropic activity” (priority 1985, dated 1987)
